Test results published in patent publication US20240166652A1, “MODULATORS OF THE INTEGRATED STRESS PATHWAY” (Calico Life Sciences LLC, priority 2017, published 2024).

The compounds below were run on ATF4 luciferase reporter in HEK293T cells (assay: ATF4-Luc assay (ATF4 luciferase reporter, tunicamycin-treated HEK293T cells)). Conditions: Homo sapiens, HEK-293T; HEK293T cells carrying the ATF4 luciferase reporter, 1 μg/mL tunicamycin, 7 hours.
Format: cell-based, human

| Structure (SMILES) | EC50 |
| --- | --- |
| O=C(COc1ccc(F)c(Cl)c1)NC12CCC(NC(=O)COc3ccc(Cl)c(F)c3)(CC1)[C@@H](O)C2 [Compound 545, 2-(4-chloro-3-fluorophenoxy)-N-{(2S)-4-[2-(3-chloro-4-fluorophenoxy)acetamido]-2-hydroxybicyclo[2.2.2]octan-1-yl}acetamide] | < 10 nM |
| O=C(COc1ccc(Cl)c(F)c1)NC12CCC(NC(=O)COc3ccc(Cl)c(F)c3)(CC1)[C@@H](C(=O)O)C2 [Compound 558, (2S)-1,4-bis[2-(4-chloro-3-fluorophenoxy)acetamido]bicyclo[2.2.2]octane-2-carboxylic Acid] | 500 to 2000 nM |
| O=C(COc1ccc(Cl)c(F)c1)NC12CC(NS(=O)(=O)Cc3ccc(F)cc3)(C1)C2 [Compound 487, 2-(4-chloro-3-fluorophenoxy)-N-(3-{[(4-fluorophenyl)methanesulfonyl]amino}bicyclo[1.1.1]pentan-1-yl)acetamide] | > 2000 nM |
| O=C(COc1ccc(F)c(C(F)F)c1)NC12CCC(NC(=O)COc3ccc(F)c(F)c3)(CC1)[C@@H](O)C2 [Compound 775, 2-[3-(difluoromethyl)-4-fluorophenoxy]-N-{(3S)-4-[2-(3,4-difluorophenoxy)acetamido]-3-hydroxybicyclo[2.2.2]octan-1-yl}acetamide] | < 10 nM |
| O=C(/C=C/c1ccccn1)NC12CC(NC(=O)COc3ccc(Cl)c(F)c3)(C1)C2 [Compound 349, (2E)-N-{3-[2-(4-chloro-3-fluorophenoxy)acetamido]bicyclo[1.1.1]pentan-1-yl}-3-(pyridin-2-yl)prop-2-enamide] | 500 to 2000 nM |
| O=C(COc1ccc(Cl)cc1)NC12CC(NCCOc3ccc(Cl)cc3)(C1)C2 [Compound 113, 2-(4-chlorophenoxy)-N-(3-{[2-(4-chlorophenoxy)ethyl]amino}bicyclo-[1.1.1]pentan-1-yl)acetamide] | 50 to 250 nM |
| O=C(CC(NC1COC1)c1ccc(Cl)cc1)NC12CCC(NC(=O)COc3ccc(Cl)c(F)c3)(CC1)[C@@H](O)C2 (stereo partly drawn) [Compound 713, N-{(3S)-4-[2-(4-chloro-3-fluorophenoxy)acetamido]-3-hydroxybicyclo[2.2.2]octan-1-yl}-3-(4-chlorophenyl)-3-[(oxetan-3-yl)amino]propanamide] | > 2000 nM |
| O=C(COc1ccc(Cl)c(F)c1)NC12CC(NCC(O)c3ccc(Cl)c(F)c3)(C1)C2 (stereo not drawn) [Compound 292, 2-(4-chloro-3-fluorophenoxy)-N-(3-{[2-(4-chloro-3-fluorophenyl)-2-hydroxyethyl]amino}bicyclo[1.1.1]pentan-1-yl)acetamide] | 500 to 2000 nM |
| O=C(COc1ccc(F)c(F)c1)NC12CCC(NC(=O)COc3ccc(C(F)(F)F)c(F)c3)(CC1)[C@@H](O)C2 [Compound 833, 2-(3,4-difluorophenoxy)-N-[(3S)-4-{2-[3-fluoro-4-(trifluoromethyl)phenoxy]acetamido}-3-hydroxybicyclo[2.2.2]octan-1-yl]acetamide] | < 10 nM |
| Cc1noc2cc(OCC(=O)NC34CC(NC(=O)COc5ccc(Cl)c(F)c5)(C3)C4)ccc12 [Compound 110, 2-(4-chloro-3-fluorophenoxy)-N-(3-{2-[(3-methyl-1,2-benzoxazol-6-yl)oxy]acetamido}bicyclo[1.1.1]pentan-1-yl)acetamide] | 500 to 2000 nM |
| O=C(COc1ccc(Cl)c(F)c1)NC12CCC(NC(=O)COc3ccc(OC(F)(F)F)c(F)c3)(CC1)[C@@H](O)C2 [Compound 750, 2-(4-chloro-3-fluorophenoxy)-N-[(3S)-4-{2-[3-fluoro-4-(trifluoromethoxy)phenoxy]acetamido}-3-hydroxybicyclo[2.2.2]octan-1-yl]acetamide] | < 10 nM |
| O=C(COc1ccc(Cl)c(F)c1)NC12CC(NC(=O)[C@@H](CO)Oc3ccc(Cl)c(F)c3)(C1)C2 [Compound 418, (2R)-2-(4-chloro-3-fluorophenoxy)-N-{3-[2-(4-chloro-3-fluorophenoxy)acetamido]bicyclo[1.1.1]pentan-1-yl}-3-hydroxypropanamide] | 10 to 50 nM |
